Experimental data reported in the NIST ThermoML archive (doi:10.1021/je7000667).

Assay: xn = mol fraction of the nth substance listed
Conditions: Gas, Burnett expansion method

FC(C(F)(F)F)C(F)(F)F [1,1,1,2,3,3,3-heptafluoropropane] + FCF
Conditions | mass density [kg/m3]
310 K, 149.52 kPa, x2 = 0.2648 | 8.291
310 K, 189.1 kPa, x2 = 0.5155 | 8.255
310 K, 204.07 kPa, x2 = 0.2648 | 11.439
310 K, 207.98 kPa, x2 = 0.7809 | 6.449
310 K, 258.01 kPa, x2 = 0.5155 | 11.389
310 K, 277.27 kPa, x2 = 0.2648 | 15.782
310 K, 284.06 kPa, x2 = 0.7809 | 8.897
310 K, 350.46 kPa, x2 = 0.5155 | 15.712
310 K, 374.4 kPa, x2 = 0.2648 | 21.774
310 K, 386.48 kPa, x2 = 0.7809 | 12.274
310 K, 473.07 kPa, x2 = 0.5155 | 21.676
310 K, 501.26 kPa, x2 = 0.2648 | 30.041
310 K, 523.12 kPa, x2 = 0.7809 | 16.934
310 K, 633.01 kPa, x2 = 0.5155 | 29.904
310 K, 662.59 kPa, x2 = 0.2648 | 41.446
310 K, 702.73 kPa, x2 = 0.7809 | 23.363
310 K, 836.5 kPa, x2 = 0.5155 | 41.255
310 K, 932.7 kPa, x2 = 0.7809 | 32.232
310 K, 1221.3 kPa, x2 = 0.7809 | 44.426
310 K, 1562.6 kPa, x2 = 0.7809 | 61.291
320 K, 154.66 kPa, x2 = 0.2648 | 8.285
320 K, 195.61 kPa, x2 = 0.5155 | 8.251
320 K, 211.27 kPa, x2 = 0.2648 | 11.431
320 K, 215.08 kPa, x2 = 0.7809 | 6.445
320 K, 267.14 kPa, x2 = 0.5155 | 11.383
320 K, 287.44 kPa, x2 = 0.2648 | 15.771
320 K, 294.06 kPa, x2 = 0.7809 | 8.892
320 K, 363.38 kPa, x2 = 0.5155 | 15.704
320 K, 388.88 kPa, x2 = 0.2648 | 21.758
320 K, 400.53 kPa, x2 = 0.7809 | 12.268
320 K, 491.5 kPa, x2 = 0.5155 | 21.665
320 K, 522.08 kPa, x2 = 0.2648 | 30.019
320 K, 543.05 kPa, x2 = 0.7809 | 16.926
320 K, 659.5 kPa, x2 = 0.5155 | 29.889
320 K, 693.04 kPa, x2 = 0.2648 | 41.416
320 K, 731.28 kPa, x2 = 0.7809 | 23.351
320 K, 875.19 kPa, x2 = 0.5155 | 41.235
320 K, 904.5 kPa, x2 = 0.2648 | 57.14
320 K, 974.36 kPa, x2 = 0.7809 | 32.216
320 K, 1142.5 kPa, x2 = 0.5155 | 56.888
320 K, 1282.2 kPa, x2 = 0.7809 | 44.404
320 K, 1653.9 kPa, x2 = 0.7809 | 61.261
320 K, 2072.7 kPa, x2 = 0.7809 | 84.517
330 K, 159.77 kPa, x2 = 0.2648 | 8.281
330 K, 202.1 kPa, x2 = 0.5155 | 8.247
330 K, 218.42 kPa, x2 = 0.2648 | 11.425
330 K, 222.17 kPa, x2 = 0.7809 | 6.442
330 K, 276.22 kPa, x2 = 0.5155 | 11.377
330 K, 297.52 kPa, x2 = 0.2648 | 15.763
330 K, 303.95 kPa, x2 = 0.7809 | 8.888
330 K, 376.17 kPa, x2 = 0.5155 | 15.696
330 K, 403.18 kPa, x2 = 0.2648 | 21.748
330 K, 414.44 kPa, x2 = 0.7809 | 12.262
330 K, 509.64 kPa, x2 = 0.5155 | 21.654
330 K, 542.59 kPa, x2 = 0.2648 | 30.004
330 K, 562.74 kPa, x2 = 0.7809 | 16.917
330 K, 685.57 kPa, x2 = 0.5155 | 29.874
330 K, 722.83 kPa, x2 = 0.2648 | 41.396
330 K, 759.44 kPa, x2 = 0.7809 | 23.34
330 K, 913.06 kPa, x2 = 0.5155 | 41.214
330 K, 948.75 kPa, x2 = 0.2648 | 57.112
330 K, 1015.2 kPa, x2 = 0.7809 | 32.2
330 K, 1198.4 kPa, x2 = 0.5155 | 56.859
330 K, 1218.7 kPa, x2 = 0.2648 | 78.795
330 K, 1341.7 kPa, x2 = 0.7809 | 44.382
330 K, 1540 kPa, x2 = 0.5155 | 78.443
330 K, 1742.4 kPa, x2 = 0.7809 | 61.23
330 K, 2206.8 kPa, x2 = 0.7809 | 84.475
340 K, 164.86 kPa, x2 = 0.2648 | 8.277
340 K, 208.54 kPa, x2 = 0.5155 | 8.243
340 K, 225.54 kPa, x2 = 0.2648 | 11.42
340 K, 229.21 kPa, x2 = 0.7809 | 6.439
340 K, 285.24 kPa, x2 = 0.5155 | 11.372
340 K, 307.52 kPa, x2 = 0.2648 | 15.755
340 K, 313.78 kPa, x2 = 0.7809 | 8.884
340 K, 388.85 kPa, x2 = 0.5155 | 15.688
340 K, 417.35 kPa, x2 = 0.2648 | 21.737
340 K, 428.24 kPa, x2 = 0.7809 | 12.256
340 K, 527.64 kPa, x2 = 0.5155 | 21.643
340 K, 562.85 kPa, x2 = 0.2648 | 29.989
340 K, 582.27 kPa, x2 = 0.7809 | 16.909
340 K, 711.31 kPa, x2 = 0.5155 | 29.859
340 K, 752.13 kPa, x2 = 0.2648 | 41.375
340 K, 787.28 kPa, x2 = 0.7809 | 23.328
340 K, 950.24 kPa, x2 = 0.5155 | 41.194
340 K, 991.76 kPa, x2 = 0.2648 | 57.084
340 K, 1055.4 kPa, x2 = 0.7809 | 32.184
340 K, 1252.9 kPa, x2 = 0.5155 | 56.831
340 K, 1283.1 kPa, x2 = 0.2648 | 78.756
340 K, 1399.9 kPa, x2 = 0.7809 | 44.36
340 K, 1614 kPa, x2 = 0.2648 | 108.656
340 K, 1621.4 kPa, x2 = 0.5155 | 78.404
340 K, 1828.5 kPa, x2 = 0.7809 | 61.2
340 K, 2042.8 kPa, x2 = 0.5155 | 108.166
340 K, 2336.2 kPa, x2 = 0.7809 | 84.433
350 K, 169.93 kPa, x2 = 0.2648 | 8.273
350 K, 214.96 kPa, x2 = 0.5155 | 8.239
350 K, 232.62 kPa, x2 = 0.2648 | 11.414
350 K, 236.22 kPa, x2 = 0.7809 | 6.436
350 K, 294.24 kPa, x2 = 0.5155 | 11.366
350 K, 317.47 kPa, x2 = 0.2648 | 15.747
350 K, 323.59 kPa, x2 = 0.7809 | 8.879
350 K, 401.46 kPa, x2 = 0.5155 | 15.68
350 K, 431.39 kPa, x2 = 0.2648 | 21.726
350 K, 441.97 kPa, x2 = 0.7809 | 12.25
350 K, 545.49 kPa, x2 = 0.5155 | 21.633
350 K, 582.86 kPa, x2 = 0.2648 | 29.974
350 K, 601.65 kPa, x2 = 0.7809 | 16.901
350 K, 736.76 kPa, x2 = 0.5155 | 29.844
350 K, 780.99 kPa, x2 = 0.2648 | 41.355
350 K, 814.82 kPa, x2 = 0.7809 | 23.317
350 K, 986.94 kPa, x2 = 0.5155 | 41.173
350 K, 1033.9 kPa, x2 = 0.2648 | 57.055
350 K, 1095 kPa, x2 = 0.7809 | 32.168
350 K, 1306.5 kPa, x2 = 0.5155 | 56.803
350 K, 1345.8 kPa, x2 = 0.2648 | 78.717
350 K, 1457.2 kPa, x2 = 0.7809 | 44.338
350 K, 1700.8 kPa, x2 = 0.5155 | 78.365
350 K, 1709.1 kPa, x2 = 0.2648 | 108.602
350 K, 1912.8 kPa, x2 = 0.7809 | 61.169
350 K, 2092.9 kPa, x2 = 0.2648 | 149.834
350 K, 2162.7 kPa, x2 = 0.5155 | 108.113
350 K, 2462 kPa, x2 = 0.7809 | 84.391
350 K, 2654.5 kPa, x2 = 0.5155 | 149.152
360 K, 174.96 kPa, x2 = 0.2648 | 8.269
